Experiments:
[1] = system: olfactory bulbectomized rats; assay: Anxiolytic behavior on elevated plus maze of olfactory bulbectomized rats; format: in vivo, rat; conditions: for Time (seconds) stayed on closed arm (mean ± S. E.) / Time (seconds) stayed on open arm (mean ± S. E.): 5 minutes test 1 hour after 8 days administration
Description: SPF rats (Crlj: WI) were used in the test. The animal for olfactory bulbectomy was anesthetized with pentobarbital sodium (Nembutal R Injection, Dainippon Pharmaceutical, dose: 1 mL/kg (intraperitoneal administration)), and the head was fixed using a brain stereotaxic apparatus (ASI Instruments, Inc., NARISHIGE). After incising the head skin, holes are opened at right and left olfactory bulb regions of the skull using a dental drill (manufactured by […]), and the right and left olfactory bulbs were removed by sucking them using an aspirator connected to a tip-removed oral sonde, and the head skin was stitched thereafter. In this connection, in the case of the animals for sham-operation, anesthesia, brain fixation and head skin incision were carried out in the same manner as in the animals for olfactory bulbectomy, holes are opened at right and left olfactory bulb regions of the skull and the head skin was stitched without carrying out suction removal of the olfactory bulbs. The rats after olfactory bulbectomy were put into a series of five stainless steel cages, each of which was partitioned into two parts with an acrylic board for individual rearing space, and individually reared under a dark condition. The rats were subjected to the following tests of (2) and (3). • (a) Sham-operation group (12 animals); • (b) Vehicle control group (12 animals); • (c) 3 mg/kg administration group (12 animals) of (2R)-2-propyloctanoic acid; • (d) 10 mg/kg administration group (12 animals) of (2R)-2-propyloctanoic acid; • (e) 10 mg/kg administration group (12 animals) of Milnacipran hydrochloride. [Drug Administration] As shown below, drug solution or vehicle was administered once a day for 8 days, a total of 8 times, at a respective liquid dose of 5 mL/kg. • (a) Sham-operation group: vehicle (0.1% by volume Tween 80) aqueous solution; • (b) Vehicle control group: vehicle (0.1% by volume Tween 80) aqueous solution; • (c) 3 mg/kg administration group of (2R)-2-propyloctanoic acid: a drug solution in which (2R)-2-propyloctanoic acid was prepared to be 0.6 mg/mL with the vehicle; • (d) 10 mg/kg administration group of (2R)-2-propyloctanoic acid: a drug solution in which (2R)-2-propyloctanoic acid was prepared to be 2.0 mg/mL with the vehicle; • (e) 10 mg/kg administration group of milnacipran hydrochloride: a drug solution in which Milnacipran hydrochloride was prepared to be 2.3 mg/mL with the vehicle (Milnacipran itself is included in 2.0 mg/mL). (2) Examination of the Activity for Hyperemotional Reactivity <Evaluation Method> Evaluation of the anxiolytic behavior on an elevated plus maze was carried out once per animal for 5 minutes from 1 hour to 1 hour and 10 minutes after 8 days of the administration, in accordance with the following method. Each animal was softly put on a platform of elevated plus maze which is described later, toward one of the open arms. Thereafter, behavior of the animal was shot using a video camera (CCD-DC430, SONY) set up the elevated plus maze, and the images were analyzed by a video image behavior analyzing device (Etho Vision, manufactured by Noldus). Additionally, the images from the video camera were recorded and handled as reference data. In this connection, when the animal fell, it was regarded as staying on the open arm, and the animal was quickly returned to the place or the open arm where it was present just before the falling. The evaluation was carried out on the respective items shown by A to H (A: frequency of approach to the open arm, B: frequency of approach to the closed arm, C: frequency of approach to the platform, D: stayed time (second) on the open arm, E: stayed time (second) on the closed arm, F: stayed time (second) on the platform, G: defecation frequency on the open arm, platform and closed arm, and H: urination frequency on the open arm, platform and closed arm), by measuring A to F using the video image behavior analyzing device, and by measuring G and H after completion of the measurement. […]

Wistar male rats [2] = assay: Confirmation test of anti-stress activity (Test Example 2); format: in vivo, rat; conditions: oral, 30 minutes before stress loading; counted 1 hour thereafter; present tense
Wistar male rats [3] = assay: Rat learned helplessness test (Test Example 3); format: in vivo; conditions: oral once a day for 6 days and 1 hour before shock training on 7th day; present tense
Description: A learned helplessness test is carried out using a two way type shuttle box which is divided into two by a gate which can be opened and closed so that shift to right and left is possible. Wistar male rats are used in the test, and a shock training is carried out on the 1st day of the test. The shock training is carried out by putting the rats in the apparatus under an inescapable condition by closing the gate, and applying an electric shock (10 seconds×90 times, intervals of 2 seconds) through a floor grid. In this connection, the rats of the control group are not treated with the electric shock and allowed to stay free in the apparatus for the same period of time. An escape test is carried out after 24 hours of the shock training. The escape test is carried out by putting the rats in the apparatus under an escapable condition by opening the gate, and after 5 minutes of adaptation, by applying a light stimulation and a sound stimulation (conditional stimulation) simultaneously for 5 seconds and subsequently applying an electric shock (no conditional stimulation) for 10 seconds. By regarding a case of no escaping and continuously receiving the electric shock as escape failure, this trial is repeated 40 times (intervals of 5 seconds), and behavior of the rats is analyzed by a behavior analysis software (MED-PC Version 1.16). […]

SD rats = assay: Water-immersion stress-loaded elevated plus maze test (Test Example 1); format: in vivo, rat; conditions: oral, 1 hour before test, written in present tense
Description: Two open arms of the same length (50×10 cm) and two closed arms of the same length (50×10 cm) (a wall of 30 cm is set) are set crossing at a right angle at a height of 50 cm from the floor and used as an elevated plus maze apparatus. Constant lighting is effected by attaching white lights to 70 cm over both of the open arms.
Using a pool (40×30×38 cm) charged with water of 22° C. to a depth of 25 cm, 120 seconds of forced swimming is loaded on SD rats of 7 weeks of age (Charles River Japan). After 9 minutes of the water-immersion stress-loading, the rats are allowed to stand still on a central part of the apparatus, and the behavior of the rats are analyzed for 5 minutes by an automatic behavior tracing analysis system (EthoVision Version 3.0, Noldus Information Technology) to calculate its staying time (second) on the open arms.
In this connection, rats of the control group are not subjected to the water-immersion stress-loading. Also, a vehicle is orally administered to the vehicle treating group 1 hour before the commencement of the test, and a test drug of various concentrations is administered to the test drug treating group.

[4] = dose 3 mg/kg once a day for 8 days
[5] = dose 10 mg/kg once a day for 8 days

CCCCCC[C@@H](CCC)C(=O)O [(2R)-2-propyloctanoic acid]
Time (seconds) stayed on closed arm (mean ± S. E.) [1, 4]: 188.7 ± 19.7 s
Time (seconds) stayed on open arm (mean ± S. E.) [1, 4]: 73.7 ± 17.5 s
Time (seconds) stayed on closed arm (mean ± S. E.) [1, 5]: 209.4 ± 24.1 s
Time (seconds) stayed on open arm (mean ± S. E.) [1, 5]: 57.7 ± 22.1 s
Anxiolytic behavior versus vehicle control group ([1]; olfactory bulbectomized rats, elevated plus maze, result in words): inhibited the anxiolytic behavior
Number of defecations versus vehicle treating group (Wistar male rats [2]): significantly suppress the number of defecations
Number of escape failures versus vehicle treating group (Wistar male rats [3]): inhibits increase of the number of escape failures
Staying time on the open arms versus vehicle treating group (SD rats): prolongs the staying time on the open arms
